# From patent US20050095240A1, “NaCT as a target for lifespan expansion and weight reduction” (Medical College of Georgia Research, priority 2002, published 2005)
# Experiments:
# drIndy = drIndy (Drosophila melanogaster, UniProt Q9VVT2); test: cell-based
# mouse NaCT = molecular target: T1, mouse NaCT (Mus musculus, UniProt Q67BT3); test: Mouse NaCT in X. laevis oocytes, two-microelectrode voltage clamp; type: cell-based; details: 0.5 mM citrate; three oocytes; −50 mV
# T1 sequence (Q67BT3 1-572): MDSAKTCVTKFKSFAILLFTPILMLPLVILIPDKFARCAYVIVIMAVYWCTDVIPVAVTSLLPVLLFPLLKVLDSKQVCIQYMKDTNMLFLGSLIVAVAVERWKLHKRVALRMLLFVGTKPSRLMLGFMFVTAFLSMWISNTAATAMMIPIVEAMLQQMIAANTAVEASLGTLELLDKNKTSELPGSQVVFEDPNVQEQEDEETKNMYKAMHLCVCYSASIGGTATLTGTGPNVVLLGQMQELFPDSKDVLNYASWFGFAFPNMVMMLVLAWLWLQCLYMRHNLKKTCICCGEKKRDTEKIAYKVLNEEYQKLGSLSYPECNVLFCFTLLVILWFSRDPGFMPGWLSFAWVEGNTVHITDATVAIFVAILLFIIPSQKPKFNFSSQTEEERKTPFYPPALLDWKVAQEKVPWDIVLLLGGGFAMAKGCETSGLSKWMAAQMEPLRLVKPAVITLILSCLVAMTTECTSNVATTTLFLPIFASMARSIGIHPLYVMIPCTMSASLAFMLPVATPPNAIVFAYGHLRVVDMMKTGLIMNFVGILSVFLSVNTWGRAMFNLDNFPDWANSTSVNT
# Protocol: Functional expression of mouse and rat NaCTs in Xenopus laevis oocytes. Capped cRNA from the cloned mouse NaCT cDNA was synthesized using the mMESSAGE mMACHINE kit (Ambion Inc., Austin, Tex., USA). In some experiments, rat NaCT of Example 2 was used for functional expression. […] On the following day, oocytes were injected with 50 ng cRNA. Water-injected oocytes served as controls. The oocytes were used for electrophysiological studies 4-6 days after cRNA injection. Electrophysiological studies were performed by the two-microelectrode voltage-clamp method (Hatanaka et al., J. Clin. Invest. (2001);107: 1035-1043 and Nakanishi et al., J. Physiol. (2001);532: 297-304). […] The membrane potential was clamped at −50 mV. […] The oocytes were perifused with 50 μM [^14C]-citrate or 50 μM succinate (unlabeled plus radiolabeled succinate) and inward currents were monitored over a period of 10 min. […] The area within the curve describing the relationship between the time and inward current was integrated to calculate the charge transferred into the oocyte during incubation with citrate or succinate. The values for substrate transport and charge transfer were used to determine the charge-to-substrate ratio.
# [1] = molecular target: Phe→Leu mutant of human NaCT (Homo sapiens, UniProt Q86YT5, F500L); test: Citrate uptake via Phe→Leu mutant of human NaCT in HRPE cells; type: cell-based
# Phe→Leu mutant of human NaCT, sequence (Q86YT5 whole entry F500L): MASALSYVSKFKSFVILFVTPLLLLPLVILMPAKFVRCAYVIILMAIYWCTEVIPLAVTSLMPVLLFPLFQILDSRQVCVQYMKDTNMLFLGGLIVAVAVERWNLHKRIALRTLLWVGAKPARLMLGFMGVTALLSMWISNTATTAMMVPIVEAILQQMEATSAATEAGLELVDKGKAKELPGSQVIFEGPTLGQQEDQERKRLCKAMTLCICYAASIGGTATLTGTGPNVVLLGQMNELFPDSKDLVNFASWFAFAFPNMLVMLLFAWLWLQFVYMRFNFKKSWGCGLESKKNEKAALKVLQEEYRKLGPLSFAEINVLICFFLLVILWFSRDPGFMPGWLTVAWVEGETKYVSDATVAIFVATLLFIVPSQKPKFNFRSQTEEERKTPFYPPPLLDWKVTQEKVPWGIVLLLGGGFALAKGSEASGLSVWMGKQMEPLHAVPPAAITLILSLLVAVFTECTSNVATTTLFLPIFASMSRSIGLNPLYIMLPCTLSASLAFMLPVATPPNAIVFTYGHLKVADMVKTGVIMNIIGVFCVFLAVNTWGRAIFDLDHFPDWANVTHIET
# hNaDC3 = molecular target: T2, hNaDC3 (Homo sapiens, UniProt Q8WWT9); test: cell-based
# T2 sequence (Q8WWT9 1-602): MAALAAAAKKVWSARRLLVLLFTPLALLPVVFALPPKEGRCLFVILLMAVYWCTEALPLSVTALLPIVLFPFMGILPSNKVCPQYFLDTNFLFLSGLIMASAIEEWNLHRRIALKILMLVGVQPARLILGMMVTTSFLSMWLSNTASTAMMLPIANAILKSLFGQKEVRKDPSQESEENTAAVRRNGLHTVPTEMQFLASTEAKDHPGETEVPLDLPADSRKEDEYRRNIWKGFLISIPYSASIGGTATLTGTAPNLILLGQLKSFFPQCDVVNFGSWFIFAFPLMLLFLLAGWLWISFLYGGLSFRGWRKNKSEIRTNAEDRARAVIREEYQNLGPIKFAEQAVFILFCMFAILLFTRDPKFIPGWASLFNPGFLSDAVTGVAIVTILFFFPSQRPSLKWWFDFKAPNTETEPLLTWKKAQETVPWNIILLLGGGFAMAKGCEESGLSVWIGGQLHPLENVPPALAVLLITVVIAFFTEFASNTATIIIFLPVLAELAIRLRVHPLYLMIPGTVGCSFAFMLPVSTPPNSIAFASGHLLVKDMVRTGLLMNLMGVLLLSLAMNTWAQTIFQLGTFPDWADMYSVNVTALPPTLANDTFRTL
# NaDC1 = details: cited from earlier work
# drIndy, sequence (Q9VVT2 19-590): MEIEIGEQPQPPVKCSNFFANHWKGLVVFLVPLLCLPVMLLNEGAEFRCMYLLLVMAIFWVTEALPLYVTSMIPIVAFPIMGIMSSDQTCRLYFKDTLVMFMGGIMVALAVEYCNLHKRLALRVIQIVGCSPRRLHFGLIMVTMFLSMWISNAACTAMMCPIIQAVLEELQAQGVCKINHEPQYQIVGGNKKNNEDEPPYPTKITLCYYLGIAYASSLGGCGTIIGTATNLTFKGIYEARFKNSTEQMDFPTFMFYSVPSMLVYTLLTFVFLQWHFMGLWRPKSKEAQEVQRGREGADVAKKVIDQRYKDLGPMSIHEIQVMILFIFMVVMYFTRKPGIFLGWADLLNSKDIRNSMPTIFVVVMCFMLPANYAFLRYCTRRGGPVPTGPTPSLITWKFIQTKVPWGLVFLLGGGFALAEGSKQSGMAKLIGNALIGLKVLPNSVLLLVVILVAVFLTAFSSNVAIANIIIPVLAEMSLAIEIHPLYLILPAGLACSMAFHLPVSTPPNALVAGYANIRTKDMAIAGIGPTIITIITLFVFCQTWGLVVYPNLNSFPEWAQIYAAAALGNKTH
SMILES,Ki (drIndy),Citrate-induced inward current (mouse NaCT),Increase in substrate affinity of mutant vs wild type [1],"Kt for citrate, Phe→Leu mutant [1]",Ki (hNaDC3),"Michaelis-Menten constant for succinate, NaDC1 (NaDC1)"
O=C(O)CC(O)(CC(=O)O)C(=O)O [Citrate],105 ± 35 µM,30±7 nA,7 fold,78 ± 8 µM,2100 ± 300 µM,–
"O=C(O)CCC(=O)O [Succinate, succinate]",–,–,–,–,–,0.1 to 4.0 mM
